tested on: Phakopsora pachyrhizi; experiment: Test A: preventive spray on soybean seedlings, Asian soybean rust, visual disease rating; assay type: in vivo; settings: rate 10 ppm
From the text: General protocol for preparing test suspensions for Test A: the test compounds were first dissolved in acetone in an amount equal to 3% of the final volume and then suspended at the desired concentration (in ppm) in acetone and purified water (50/50 mix by volume) containing 250 ppm of the surfactant PEG400 (polyhydric alcohol esters). The resulting test suspensions were then used in Test A.
The test solution was sprayed to the point of run-off on soybean seedlings. The following day the seedlings were inoculated with a spore suspension of Phakopsora pachyrhizi (the causal agent of Asian soybean rust) and incubated in a saturated atmosphere at 22° C. for 24 h and then moved to a growth chamber at 22° C. for 8 days, after which time visual disease ratings were made.
A rating of 100 indicates 100% disease control and a rating of 0 indicates no disease control (relative to the controls).

In order of rising “Test A rating (100 = 100% disease control, 0 = no disease control relative to the controls)” value:
1. CCO/C(=C\Oc1ccc(Cn2cc(COC(=O)CC(F)(F)F)nn2)cc1)C(F)(F)F [Compound 11]  0%
2. CCO/C(=C\Oc1ccc(Cn2cc(COC(=O)CC#N)nn2)cc1)C(F)(F)F [Compound 9]  0%
3. CCO/C(=C\Oc1ccc(Cn2cc(COC(=O)C3CCCC3)nn2)cc1)C(F)(F)F [Compound 12]  79%
4. CCO/C(=C\Oc1ccc(Cn2cc(CON(C(C)=O)C(C)=O)cn2)cc1)C(F)(F)F [compound 20]  79%
5. CCO/C(=C\Oc1ccc(Cn2cc(C(N)=NO)cn2)cc1)C(F)(F)F [compound 56]  84%
6. C=CCON(CC)C(=O)c1cnn(Cc2ccc(O/C=C(\OCC)C(F)(F)F)cc2)c1 [compound 41]  94%
7. CCO/C(=C\Oc1ccc(Cn2cccc(C(=O)N(C)OCCOC)c2=O)cc1)C(F)(F)F [compound 101]  94%
8. CCO/C(=C\Oc1ccc(Cn2cc(CC(=O)OCC3CC3)cn2)cc1)C(F)(F)F [compound 13]  96%
9. CCO/C(=C\Oc1ccc(Cn2cccc(C(=O)NOCCOC)c2=O)cc1)C(F)(F)F [compound 103]  97%
10. CCO/C(=C\Oc1ccc(Cc2cccc(C(=O)NOCC(F)(F)F)n2)cc1)C(F)(F)F [Compound 127, 2-[[4-1[[(1Z)-2-ethoxy-3,3,3-trifluoro-1-propen-1-yl]oxy]phenyl]methyl]-N-(2,2,2-trifluoroethoxy)-6-pyridinecarboxamide]  99%
11. CCO/C(=C\Oc1ccc(Cn2cccc(C(=O)N(C)OCC3CC3)c2=O)cc1)C(F)(F)F [compound 102]  99%
12. C=CCON=C(OCC)c1cnn(CCc2ccc(O/C=C(\OCC)C(F)(F)F)cc2)c1 [compound 61]  100%
13. CCO/C(=C\Oc1ccc(Cn2cc(COC(=O)CC)cn2)c(F)c1F)C(F)(F)F [Compound 70]  100%
14. C=CCONC(=O)c1cnn(CCc2ccc(O/C=C(\OCC)C(F)(F)F)cc2)c1 [compound 62]  100%
15. C=CCOCc1cnn(Cc2ccc(O/C=C(\OCC)C(F)(F)F)cc2)c1 [compound 66]  100%
16. CCO/C(=C\Oc1ccc(Cn2cc(COC(=O)COC)cn2)c(F)c1)C(F)(F)F [Compound 75]  100%
17. CCO/C(=C\Oc1ccc(Cn2cc(COCC3CCCC3)cn2)cc1)C(F)(F)F [compound 63]  100%
18. CCO/C(=C\Oc1ccc(Cn2cc(C(=O)NOCC=CCl)cn2)cc1)C(F)(F)F [compound 32]  100%
19. CCO/C(=C\Oc1ccc(Cc2ccnc(C(=O)NOCC3CC3)c2)cc1)C(F)(F)F [Compound 132, 4-[[4-1[[(1Z)-2-ethoxy-3,3,3-trifluoro-1-propen-1-yl]oxy]phenyl]methyl]-N-(cyclopropylmethoxy)-2-pyridinecarboxamide]  100%
20. CCO/C(=C\Oc1ccc(Cn2cc(COC(=O)C(C)(C)C)cn2)c(F)c1F)C(F)(F)F [Compound 72]  100%
21. CCO/C(=C\Oc1ccc(Cn2cc(COC(=O)C3CC3)cn2)c(F)c1)C(F)(F)F [Compound 76]  100%
22. CCO/C(=C\Oc1ccc(Cn2cc(COCC3CC3)cn2)cc1)C(F)(F)F [compound 64]  100%
23. CCO/C(=C\Oc1ccc(Cn2cc(C(=O)NOCC#N)cn2)c(F)c1)C(F)(F)F [Compound 81]  100%
24. CCO/C(=C\Oc1ccc(Cn2cccc(C(=O)NOCC3CC3)c2=O)cc1)C(F)(F)F [compound 104]  100%
25. CCO/C(=C\Oc1ccc(Cn2cc(COC(=O)OC)cn2)c(F)c1F)C(F)(F)F [Compound 69]  100%
26. CCO/C(=C\Oc1ccc(Cn2cc(COC(=O)C(C)(C)C)cn2)c(F)c1)C(F)(F)F [Compound 73]  100%
27. CCO/C(=C\Oc1ccc(Cn2cc(COC(=O)CCC(=O)OC)cn2)cc1)C(F)(F)F [compound 26]  100%

same assay, conditions: rate 10 ppm, read-out: Test A rating (100 = 100% disease control, 0 = no disease control relative to the controls)

In order of falling pest or weed control at 10 ppm:
1. CCO/C(=C\Oc1ccc(Cc2cccc(C(=O)N(C)OCC3CC3)n2)cc1)C(F)(F)F [Compound 123, 2-[[4-[[(1Z)-2-ethoxy-3,3,3-trifluoro-1-propen-1-yl]oxy]phenyl]methyl]-N-(cyclopropylmethoxy)-N-methyl-6-pyridinecarboxamide]  100%
2. C=CCONC(=O)c1cnn(Cc2cccc(O/C=C(\OCC)C(F)(F)F)c2)c1 [compound 114]  100%
3. CCOC(=O)C(OC(C)=O)c1cnn(Cc2ccc(O/C=C(\OCC)C(F)(F)F)cc2)c1 (stereo not drawn) [Compound 54, ethyl α-(acetyloxy)-1-[[4-[[(1Z)-2-ethoxy-3,3,3-trifluoro-1-propen-1-yl]oxy]phenyl]methyl]-1H-pyrazole-4-acetate]  100%
4. CCO/C(=C\Oc1ccc(Cc2nc(C(=O)NOCC3CC3)cs2)cc1)C(F)(F)F [compound 116]  100%
5. CCO/C(=C\Oc1ccc(Cn2cc(COC(=O)C(C)C)cn2)cc1)C(F)(F)F [Compound 46, [1-[[4-[[(1Z)-2-ethoxy-3,3,3-trifluoro-1-propen-1-yl]oxy]phenyl]methyl]-1H-pyrazol-4-yl]methyl 2-methylpropanoate]  100%
6. CCO/C(=C\Oc1ccc(Cn2cc(COC(=O)C(C)(C)C)cn2)cc1)C(F)(F)F [Compound 47, [1-[[4-[[(1Z)-2-ethoxy-3,3,3-trifluoro-1-propen-1-yl]oxy]phenyl]methyl]-1H-pyrazol-4-yl]methyl 2,2-dimethylpropanoate]  100%
7. C=CCON(CC)C(=O)c1cc(Cc2ccc(O/C=C(\OCC)C(F)(F)F)cc2)ccn1 [Compound 119, 4-[[4-[[(1Z)-2-ethoxy-3,3,3-trifluoro-1-propen-1-yl]oxy]phenyl]methyl]-N-ethyl-N-(2-propen-1-yloxy)-2-pyridinecarboxamide]  100%
8. C=CCONC(=O)c1ccn(Cc2ccc(O/C=C(\OCC)C(F)(F)F)cc2)n1 [compound 111]  100%
9. CCO/C(=C\Oc1ccc(Cc2nc(C(=O)NOCCOC)cs2)cc1)C(F)(F)F [compound 112]  100%
10. CCO/C(=C\Oc1ccc(Cn2cc(COC(=O)CCSC)cn2)cc1)C(F)(F)F [Compound 50, [1-[[4-[[(1Z)-2-ethoxy-3,3,3-trifluoro-1-propen-1-yl]oxy]phenyl]methyl]-1H-pyrazol-4-yl]methyl 3-(methylthio)propanoate]  100%
11. CCO/C(=C\Oc1ccc(Cn2cc(COC(=O)CC)cn2)cc1)C(F)(F)F [Compound 21, [1-[[4-[[(1Z)-2-ethoxy-3,3,3-trifluoro-1-propen-1-yl]oxy]phenyl]methyl]-1H-pyrazol-4-yl]methyl propanoate]  100%
12. CCO/C(=C\Oc1ccc(Cc2cccc(C(=O)N(C)OCc3ccccc3)n2)cc1)C(F)(F)F [compound 122]  100%
13. C=CCON(C)C(=O)c1cccc(Cc2ccc(O/C=C(\OCC)C(F)(F)F)cc2)n1 [Compound 108, 2-[[4-[[(1Z)-2-ethoxy-3,3,3-trifluoro-1-propen-1-yl]oxy]phenyl]methyl]-N-methyl-N-(2-propen-1-yloxy)-6-pyridinecarboxamide]  100%
14. C=CCON=C(OCC)c1cnn(Cc2ccc(O/C=C(\OCC)C(F)(F)F)cc2)c1 [Compound 40, ethyl 1-[[4-[[(1Z)-2-ethoxy-3,3,3-trifluoro-1-propen-1-yl]oxy]phenyl]methyl]-N-(2-propen-1-yloxy)-1H-pyrazole-4-carboximidate]  100%
15. CCO/C(=C\Oc1ccc(Cc2cccc(C(=O)NOCc3ccccc3)n2)cc1)C(F)(F)F [compound 126]  99%
16. C#CCO/N=C(\OC)c1cccc(Cc2ccc(O/C=C(\OCC)C(F)(F)F)cc2)n1 [compound 134]  99%
17. C=CCONC(=O)c1cc(Cc2ccc(OCC3(C(F)(F)F)OCCO3)cc2)ccn1 [compound 129]  98%
18. C=CCONC(=O)c1ccn(Cc2ccc(O/C=C(\OCC)C(F)(F)F)cc2)c1 [compound 115]  96%

same assay, conditions: rate 50 ppm

In order of falling “Test A rating (100 = 100% disease control, 0 = no disease control relative to the controls)” value:
1. CCO/C(=C\Oc1ccc(Cn2cc(COC(=O)NC)cn2)cc1)C(F)(F)F [compound 15]  100%
2. O=C(CC1CC1)OCc1cnn(Cc2ccc(OCC3(C(F)(F)F)OCCO3)cc2)c1 [Compound 88]  100%

same assay, conditions: rate 50 ppm, read-out: Test A rating (100 = 100% disease control, 0 = no disease control relative to the controls)

With `CCO/C(=C\Oc1ccc(Cn2cc(CC(=O)N(C)OC)cn2)cc1)C(F)(F)F` [Compound 5, 1-[[4-[[(1Z)-2-ethoxy-3,3,3-trifluoro-1-propen-1-yl]oxy]phenyl]methyl]-N-methoxy-N-methyl-1H-pyrazole-4-acetamide] the pest or weed control at 50 ppm was 94%.

Source: patent US20250089717A1, “FUNGICIDAL HALOMETHYL KETONES, HYDRATES AND ENOL ETHERS AND THEIR MIXTURES” (FMC CORPORATION, priority 2023, published 2025)
